Experimental data taken from US5166162A, “Pyridylsulfonylurea and pyridylsulfonylthiourea compounds” (Adir et Compagnie, priority 1990, dated 1992).

Columns and labels:
[1] = target: T1, Na^+ /K^+ /2Cl^- cotransport (Oryctolagus cuniculus, UniProt P55015); test: Inhibition of Na+/K+/2Cl- cotransport, luminal membrane of the ascending branch of the loop of Henle in the nephron of perfused rabbits; details: in vivo
T1 construct: luminal membrane of the ascending branch of the loop of Henle in the nephron of perfused rabbits; from tissue; host or cells: rabbit nephron, ascending branch of the loop of Henle
T1 sequence (P55015 1-1099): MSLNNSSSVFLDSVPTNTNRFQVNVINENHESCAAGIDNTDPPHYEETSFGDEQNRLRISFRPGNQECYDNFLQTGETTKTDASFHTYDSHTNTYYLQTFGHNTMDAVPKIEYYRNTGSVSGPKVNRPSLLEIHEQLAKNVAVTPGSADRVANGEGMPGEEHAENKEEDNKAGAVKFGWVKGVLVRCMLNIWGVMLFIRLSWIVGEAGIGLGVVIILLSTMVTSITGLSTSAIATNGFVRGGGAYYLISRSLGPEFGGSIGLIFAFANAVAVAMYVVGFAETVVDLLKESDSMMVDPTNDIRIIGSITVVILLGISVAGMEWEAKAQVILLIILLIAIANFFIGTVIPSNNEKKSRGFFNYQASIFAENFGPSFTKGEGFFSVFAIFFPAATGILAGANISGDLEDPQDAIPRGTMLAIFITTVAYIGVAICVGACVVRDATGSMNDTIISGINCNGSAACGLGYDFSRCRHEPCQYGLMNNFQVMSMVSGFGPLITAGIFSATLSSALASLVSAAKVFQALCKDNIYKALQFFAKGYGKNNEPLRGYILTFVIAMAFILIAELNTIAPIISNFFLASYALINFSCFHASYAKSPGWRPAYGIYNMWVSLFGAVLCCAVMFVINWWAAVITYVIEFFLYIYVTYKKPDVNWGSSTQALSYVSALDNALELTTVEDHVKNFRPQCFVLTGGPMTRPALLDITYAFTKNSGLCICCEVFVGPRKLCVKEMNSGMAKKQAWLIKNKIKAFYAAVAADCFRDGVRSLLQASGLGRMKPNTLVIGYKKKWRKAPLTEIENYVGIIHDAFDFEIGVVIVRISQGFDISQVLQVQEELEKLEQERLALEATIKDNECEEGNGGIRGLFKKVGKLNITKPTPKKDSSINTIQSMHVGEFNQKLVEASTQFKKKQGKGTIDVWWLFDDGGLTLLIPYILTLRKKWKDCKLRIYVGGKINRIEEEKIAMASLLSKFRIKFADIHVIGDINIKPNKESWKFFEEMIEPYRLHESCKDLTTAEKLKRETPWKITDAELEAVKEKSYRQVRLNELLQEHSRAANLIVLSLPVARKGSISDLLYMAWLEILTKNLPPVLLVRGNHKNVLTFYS
Description: (§1) The 50% inhibitory concentration for Na^+ /K^+ /2Cl^- cotransport in vivo is decreased, in the case of the compound of Example 3, by about 60% relative to Torasemide (luminal membrane of the ascending branch of the loop of Henle in the nephron of perfused rabbits (Arzneim. Forsch. (1988) 38 (1a), 151-152)), and by 85% relative to Torasemide in the case of the compound of Example 10 (erythrocyte membrane in normotensive rats).

[2] = Determination of pKa (proton acidity constant of SO2-NH-CO-); type: physicochemical
Description: The pKa values represent the proton acidity constants of SO2 --NH--CO--.

[3] = Determination of partition coefficients between n-octanol and water; type: physicochemical; details: pH=7.4, logarithm to base 10
Procedure: The coefficients of partition between n-octanol and water were determined at pH=7.4 by conventional techniques and are expressed as logarithms to base 10 (Log P).

[4] = target: T2, Na^+ /K^+ /2Cl^- cotransport (Rattus norvegicus, UniProt E9PTX9); test: Inhibition of Na+/K+/2Cl- cotransport, erythrocyte membrane in normotensive rats; type: in vivo
T2 construct: erythrocyte membrane in normotensive rats; from tissue; host or cells: rat erythrocytes
T2 sequence (E9PTX9 1-1203): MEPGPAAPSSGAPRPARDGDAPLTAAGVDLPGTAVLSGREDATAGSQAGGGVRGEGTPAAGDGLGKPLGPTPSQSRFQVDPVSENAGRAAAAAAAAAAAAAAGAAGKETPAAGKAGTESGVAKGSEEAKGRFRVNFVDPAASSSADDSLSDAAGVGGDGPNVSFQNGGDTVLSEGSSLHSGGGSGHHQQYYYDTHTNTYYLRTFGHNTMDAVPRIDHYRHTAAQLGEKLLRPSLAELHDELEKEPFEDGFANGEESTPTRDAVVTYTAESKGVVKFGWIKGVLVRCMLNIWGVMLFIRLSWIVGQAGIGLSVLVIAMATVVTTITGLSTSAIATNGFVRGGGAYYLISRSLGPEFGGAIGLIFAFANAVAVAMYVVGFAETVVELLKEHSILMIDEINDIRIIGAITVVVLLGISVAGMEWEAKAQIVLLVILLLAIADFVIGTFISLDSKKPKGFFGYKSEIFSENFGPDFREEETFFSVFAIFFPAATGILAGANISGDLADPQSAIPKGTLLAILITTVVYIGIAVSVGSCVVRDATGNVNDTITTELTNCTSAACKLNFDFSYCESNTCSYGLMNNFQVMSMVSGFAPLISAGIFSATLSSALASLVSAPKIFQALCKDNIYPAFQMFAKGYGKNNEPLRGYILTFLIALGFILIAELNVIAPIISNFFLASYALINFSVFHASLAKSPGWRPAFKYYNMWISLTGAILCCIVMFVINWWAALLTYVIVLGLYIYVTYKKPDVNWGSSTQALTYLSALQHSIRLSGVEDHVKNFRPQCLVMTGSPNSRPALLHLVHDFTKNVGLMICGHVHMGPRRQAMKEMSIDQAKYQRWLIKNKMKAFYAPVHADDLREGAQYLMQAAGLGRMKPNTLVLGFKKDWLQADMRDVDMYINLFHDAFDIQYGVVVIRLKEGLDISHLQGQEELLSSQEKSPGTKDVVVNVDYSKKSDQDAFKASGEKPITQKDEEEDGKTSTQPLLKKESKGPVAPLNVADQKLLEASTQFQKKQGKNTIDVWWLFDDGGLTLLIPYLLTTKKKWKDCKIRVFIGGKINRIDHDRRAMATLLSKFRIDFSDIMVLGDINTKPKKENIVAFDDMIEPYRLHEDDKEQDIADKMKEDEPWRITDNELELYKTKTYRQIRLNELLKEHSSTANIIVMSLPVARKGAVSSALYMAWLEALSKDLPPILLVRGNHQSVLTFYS
Description: as §1
This decrease of the 50% inhibitory concentration of the Torasemide for Na^+ /K^+ /[…] co-transport (erythrocyte membrane in normotensive rats) reachs even 90% in the case of the compound of Example 18.

[5] = test system: Cl^- passage in the kidneys; test: Inhibition of Cl- passage in the kidneys in vivo
Description: The 50% inhibitory concentration for Cl^- passage in the kidneys in vivo is decreased, in the case of the compound of Example 8 by about 50% relative to Torasemide and in the case of the compound of Example 18 by 75%.

SMILES | decrease of the 50% inhibitory concentration for Na+/K+/2Cl- cotransport relative to Torasemide [1] | pKa [2] | logD [3] | decrease of the 50% inhibitory concentration for Na+/K+/2Cl- cotransport relative to Torasemide [4] [%] | decrease of the 50% inhibitory concentration for Cl- passage in the kidneys relative to Torasemide [5]
O=C(NC1CCCCCCC1)NS(=O)(=O)c1cnccc1NC1CCCCCCC1 [Example 3, N-((4-(cyclooctylamino)pyrid-3-yl)sulfonyl-N'-cyclooctylurea nitrate] | about 60% | 7.74 | 2.7 |  | 
O=C(NC1CCCCC1)NS(=O)(=O)c1cnccc1NC1CCCCCCC1 [Example 10, N-((4-(cyclooctylamino)pyrid-3-yl)sulfonyl)-N'-cyclohexylurea] |  | 8.95 | 2.06 | 85 | 
Cc1cccc(Nc2ccncc2S(=O)(=O)NC(=O)NC(C)C)c1 [Torasemide, reference compound] |  | 6.82 | 0.449 |  | 
O=C(NC1CCCCC1)NS(=O)(=O)c1cnccc1NC1CCCCCC1 [Example 2, N-((4-(cycloheptylamino)pyrid-3-yl)sulfonyl)-N'-cyclohexylurea] |  | 9.39 | 1.67 |  | 
O=C(NC1CCCCCC1)NS(=O)(=O)c1cnccc1NC1CCCCCC1 [Example 18, N-((4-(cycloheptylamino)pyrid-3-yl)sulfonyl)-N'-cycloheptylurea] |  |  |  | 90 | 75%
O=C(NC1CCCCC1)NS(=O)(=O)c1cnccc1NC1CCCCC1 [Example 1, N-((4(-cyclohexylamino)pyrid-3-yl)sulfonyl)-N'-cyclohexylurea] |  | 9.02 | 1.33 |  | 
O=C(NC1CCCCCC1)NS(=O)(=O)c1cnccc1NC1CCCCCCC1 [Example 8, N-((4-(cyclooctylamino)pyrid-3-yl)sulfonyl)-N'-cycloheptylurea] |  | 9.15 | 2.45 |  | about 50%
O=C(NC1CCCCCCC1)NS(=O)(=O)c1cnccc1NC1CCCCC1 [Example 7, N-((4-(cyclohexylamino)pyrid-3-yl)sulfonyl)-N'-cyclooctylurea] |  | 9.13 | 2.07 |  | 
